Experimental data as given in patent US10626368B2, “Method for inducing cerebral cortex neurons” (KYOTO UNIVERSITY, priority 2015, dated 2020).

Assays:
[1] = test system: ES cells or the iPS cells; assay: Immunostaining for CoupTF1 and Ctip2 after 46 days of cerebral cortex differentiation; format: cell-based, human; conditions: 2 nM C59 as Wnt inhibitor, 46 days; compared with 500 ng/ml DKK1, 500 nM XAV
Excerpt: Human ES cells (KhES-1) were obtained from Institute for Frontier Medical Sciences, Kyoto University (Suemori H, et al. Biochem Biophys Res Commun. 345: 926-32, 2006). The human iPS cells 404C2 are cells obtained by introducing Oct3/4, Sox2, Klf4, L-MYC, LIN28 and p53shRNA into human fibroblasts, using an episomal vector, and these cells were obtained from Professor Yamanaka et al. in Kyoto University (Okita, et al, Nat Methods. 8: 409-412, 2011). The human iPS cells 836B1 are cells obtained by introducing Oct3/4, Sox2, Klf4, L-MYC, LIN28, GLIS1 and p53shRNA into human fibroblasts, using an episomal vector, and these cells were obtained from Professor Yamanaka et al. in Kyoto University. The ES cells and the iPS cells were cultured on SNL cells (Takahashi K, et al, Cell. 131: 861-872, 2007).
On the day before induction of differentiation, in order to separate the ES cells or the iPS cells, which had been cultured in a culture medium to which 10 μM Y-27632 (WAKO) had been added, from the SNL feeder cells, the SNL cells were removed with CTK and the remaining cells were then dissociated using Accumax (ICT). The cells were transferred on a 96-well plate (Lipidure-coat 96-well plate (NOF Corporation)) in an amount of 9×10^3 cells per well. Thereafter, the cells were subjected to a suspension culture in DMEM/F12 (WAKO) comprising 50 μM Y-27632 (WAKO), 10 μM SB43152 (Sigma), 10 ng/ml bFGF (Invitrogen), various types of Wnt inhibitors (DKK1 (R & D, 500 ng/ml), C59 (Cellagen Technology, 2-10 nM), XAV (Stemgent, 500 nM-2 μM) or IWP4 (Stemgent, 500 nM-2.5 μM)), LDN193189 (Stemgent), KSR (Invitrogen), 0.1 mM MEM non-essential amino acid (Invitrogen), 0.1 mM 2-mercaptoethanol (WAKO), and 2 mM L-Gln (Invitrogen) (initiation of differentiation induction, day 0). […]
The concentration of LDN193189 used in the above-described induction method was examined. […] Furthermore, the expression levels of the CoupTF1 and Sfrp1 genes were measured according to a qPCR method (FIG. 5C). […]

[2] = test system: ES cells or the iPS cells; assay: Sphere formation and Pax6 immunostaining after 18 days of suspension culture; format: cell-based, human
Description: On the day before induction of differentiation, in order to separate the ES cells or the iPS cells, which had been cultured in a culture medium to which 10 μM Y-27632 (WAKO) had been added, from the SNL feeder cells, the SNL cells were removed with CTK and the remaining cells were then dissociated using Accumax (ICT). The cells were transferred on a 96-well plate (Lipidure-coat 96-well plate (NOF Corporation)) in an amount of 9×10^3 cells per well. Thereafter, the cells were subjected to a suspension culture in DMEM/F12 (WAKO) comprising 50 μM Y-27632 (WAKO), 10 μM SB43152 (Sigma), 10 ng/ml bFGF (Invitrogen), various types of Wnt inhibitors (DKK1 (R & D, 500 ng/ml), C59 (Cellagen Technology, 2-10 nM), XAV (Stemgent, 500 nM-2 μM) or IWP4 (Stemgent, 500 nM-2.5 μM)), LDN193189 (Stemgent), KSR (Invitrogen), 0.1 mM MEM non-essential amino acid (Invitrogen), 0.1 mM 2-mercaptoethanol (WAKO), and 2 mM L-Gln (Invitrogen) (initiation of differentiation induction, day 0). […] Furthermore, the expression levels of the Foxg1, Lhx2, Emx2 and CoupTF1 genes in the obtained spheres were measured according to a qPCR method (FIG. 4B). […]

Cc1cc(-c2ccc(CC(=O)Nc3ccc(-c4cccnc4)cc3)cc2)ccn1 [C59]
CoupTF1-negative Ctip2-positive cerebral cortex neurons induced [1]: a large number
sphere formation in the suspension culture ([2]; 1 μM C59, 18 days): no spheres were formed
Pax6-positive cells in spheres (immunostaining) ([2]; without C59, 2.5 nM and 10 nM C59, 18 days): positive cells were confirmed under all conditions
